Earlier results in patent US7323476B2, “Myriceric acid derivatives for the treatment of cancer, cardiovascular and inflammatory diseases” (SaviPu Pharmaceuticals, priority 2006, dated 2008).

Key:
[1] = system: NF-κB; conditions: qualitative statement on natural products of Fig. R
[2] = system: endothelin receptor; conditions: qualitative, earlier studies

binding to the endothelin receptor [2] | Compound | inhibition of NF-κB [1]
– | COc1c(O)cc(O)c2c(=O)cc(-c3ccccc3)oc12 [wogonin] | good activity
– | Theaflavin-3,3′-digallate | potent inhibitor
already been demonstrated | myriceric acid A [PM2011A] | –
